Measured values as given in patent publication US20100272699A1, “MC-1R, MC-2R, and/or µ OPIOID RECEPTORS STIMULATION” (BASF BEAUTY CARE SOLUTIONS FRANCE S.A.S., priority 2007, published 2010).

Key:
Format in all cases: cell-based, human
[1] = test system: MC-1R; test: RT-PCR of MC-1R mRNA in keratinocytes put in contact with actives; conditions: for stimulation of mRNA synthesis of the 3 receptors (MC-1R): positive controls in keratinocytes: TGF-β 1 ng/ml, TNF-α 100 ng/mL, IL-1α 50 pg/ml, quantitative RT-PCR (x2 or x.08 for the 3 inducers)
Source text: (§1) In particular, the extracts are obtained by macerating plants (preferably roots, rhizomes, stems, bark, flowers, fruits, seeds, germs, or leaves) at 1-10% (p/p), usually 1-5% in a solvent or a mixture of solvents, usually a mixture of water and alcohol, glycol, or polyol (such as ethanol, glycerol, butylene glycol and other glycols, xylitol, etc.) 100/0 to 0/100, and preferably in water. The extracts obtained are then filtered or distilled in order to recover the soluble portion, which is then filtered, preferably at 0.45 μm. Biotechnological hydrolysates are obtained via the fermentation of plant extracts in the presence of microorganisms usually from the family of lactic bacteria, in particular bactobacillus plantarum, or paracasei, and bifidobacterium, in particular longum or Saccharomyces. These hydrolysates are then filtered, preferably to 0.45 μm, in order to obtain the active components.
(§2) The characterized molecules are prepared via dissolution in a solvent, usually DMSO, ethanol, glycol, and in particular DMSO at a concentration of 0.1%.
(§3) The active components are tested for keratinocytes after dissolution in the culturing environment: usually between 0.1% and 2% (v/v) for plants and biotechnological hydrolysates and in particular from 0.5% to 1% and usually between 0.001% and 0.01% for characterized molecules. The present results are obtained with 1% in the culturing environment for plant extracts and biotechnological hydrolysates, and with 0.01% for characterized molecules.
(§4) Keratinocytes taken from plastic surgery on normal adults through enzymatic digestion have been amplified in a specific environment for keratinocytes and then seeded, for example at 50,000 per cm^2 in 24-well plates and cultivated in a single layer in a definite no-serum environment. Upon convergence, the cells are put in contact with diluted actives in the culturing environment, usually for 24 hours.
(§5) In parallel, an untreated control (environment alone) and 3 positive controls (TGF-β at 1 ng/ml, IL-1α at 50 pg/ml and TNF-α at 100 ng/mL) are usually carried out, for example on the same cultivation plate. TGF-β at 1 ng/ml, TNF-α at 100 ng/mL, and IL-1α at 50 pg/ml were previously tested and stimulation of mRNA synthesis of the 3 receptors induced by these 3 cytokins at these concentrations was verified through an analysis of mRNA, for example by quantatitive RT-PCR (x2 or x.08 for the 3 inducers). […]
(§6) The parameters of amplification have usually been the following: The technique of RT-PCR in real time is conducted with the “Quanti Tect SYBR Green RT-PCR” kit (Qiagen, France) on wells containing mRNA, in an OPTICON thermocycler, which carries out cycles of amplification. […] At the end of each cycle, fluorescence, which is proportional to the number of fragments amplified, is read. […]

[2] = test system: POMC; test: RT-PCR of POMC mRNA in keratinocytes put in contact with actives; conditions: mRNA vs untreated control, relative to actin, 24 hours, 1% plant extracts and biotechnological hydrolysates, 0.01% characterized molecules
Source text: as §1, with “components. […]” for “components.”
as §6

[3] = test system: μ opioid R; test: RT-PCR of μ opioid R mRNA in keratinocytes put in contact with actives; conditions: for stimulation of mRNA synthesis of the 3 receptors (μ opioid R): positive controls in keratinocytes: TGF-β 1 ng/ml, TNF-α 100 ng/mL, IL-1α 50 pg/ml, quantitative RT-PCR (x2 or x.08 for the 3 inducers)
Source text: as §1, §2, §3, §4, §5, §6

[4] = test system: MC-2R; test: RT-PCR of MC-2R mRNA in keratinocytes put in contact with actives; conditions: for stimulation of mRNA synthesis of the 3 receptors (MC-2R): positive controls in keratinocytes: TGF-β 1 ng/ml, TNF-α 100 ng/mL, IL-1α 50 pg/ml, quantitative RT-PCR (x2 or x.08 for the 3 inducers)
Source text: as §1, §2, §3, §4, §5, §6

[5] = mRNA vs untreated control, relative to actin, keratinocytes, 24 hours, 1% plant extracts and biotechnological hydrolysates, 0.01% characterized molecules

Compound	MC-1R Control X: [1, 5] [Control X]	POMC Control X: [2] [Control X]	μ opioid R Control X: [3, 5] [Control X]	MC-2R Control X: [4, 5] [Control X]	stimulation of mRNA synthesis of the 3 receptors (MC-1R) [1]	stimulation of mRNA synthesis of the 3 receptors (μ opioid R) [3]	stimulation of mRNA synthesis of the 3 receptors (MC-2R) [4]
CC1=CC(=O)C2=C(C)CC(OC(=O)Cc3ccccc3)C3C(C)C(=O)OC3C12 (stereo not shown) [phenylacetic acid 3,6,9-trimethyl-2,7-dioxo-2,3,3a,4,5,7,9a,9b-octahydro-azuleno[4,5-b]furan-4-yl]	20.0	1	1.0	20.0	–	–	–
TGF-β	–	–	–	–	stimulation	stimulation	stimulation
IL-1α: cytokine used as positive control at 50 pg/ml	–	–	–	–	stimulation	stimulation	stimulation
TNF-α	–	–	–	–	stimulation	stimulation	stimulation
